Test results from US8754073B2, “Substituted piperazino-dihydrothienopyrimidines” (Boehringer Ingelheim International GmbH, priority 2007, dated 2014).
Structures can show the parent of a compound that is named as a salt.

Molecular target: PDE4B (Homo sapiens, UniProt Q07343)
Assay: Scintillation Proximity Assay (SPA) of PDE4B enzyme activity ([H3]-cAMP cleavage)
Format: biochemical
Details: test substance 1 μM
Outline: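 Percent inhibition at 1 μM compound, measured against an uninhibited reaction. PDE4B hydrolysed tritiated cAMP for one hour at 30 °C, then scintillator beads were added to capture [H3]-5′-AMP. Light events were counted after 45 min bead settling.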

[1] = one-hour incubation of [H3]-cAMP with PDE4B enzyme at 30° C.
[2] = one-hour incubation with [H3]-cAMP at 30° C.

Sequence of PDE4B (Q07343 whole entry, species assumed): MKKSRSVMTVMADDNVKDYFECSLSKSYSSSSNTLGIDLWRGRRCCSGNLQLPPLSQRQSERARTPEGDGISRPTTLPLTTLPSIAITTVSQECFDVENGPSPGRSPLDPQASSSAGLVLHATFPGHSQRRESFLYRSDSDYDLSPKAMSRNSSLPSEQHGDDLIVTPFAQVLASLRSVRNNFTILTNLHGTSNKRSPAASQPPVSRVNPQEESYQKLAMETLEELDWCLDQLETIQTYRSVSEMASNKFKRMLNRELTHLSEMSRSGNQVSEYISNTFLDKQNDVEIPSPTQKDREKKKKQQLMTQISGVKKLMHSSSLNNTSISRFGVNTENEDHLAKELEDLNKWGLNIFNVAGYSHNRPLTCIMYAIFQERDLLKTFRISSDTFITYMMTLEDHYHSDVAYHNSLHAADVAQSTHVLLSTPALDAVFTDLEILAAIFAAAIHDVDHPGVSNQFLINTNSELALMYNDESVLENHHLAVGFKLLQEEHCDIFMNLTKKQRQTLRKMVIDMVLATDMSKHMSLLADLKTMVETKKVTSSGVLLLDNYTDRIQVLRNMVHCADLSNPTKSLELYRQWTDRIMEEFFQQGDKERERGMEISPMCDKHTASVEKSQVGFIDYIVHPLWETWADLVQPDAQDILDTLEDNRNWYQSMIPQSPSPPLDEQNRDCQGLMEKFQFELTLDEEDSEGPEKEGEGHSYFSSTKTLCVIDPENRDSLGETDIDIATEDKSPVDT

Row | inhibition at 1 µM [1] [%] | inhibition at 1 µM [2] [%] | SMILES
1 |  | 93 | CN(CC1(c2ccccc2)CCN(c2nc3c(c(Nc4cccc(F)c4)n2)[S+]([O-])CC3)CC1)S(C)(=O)=O (centres unmarked) [Example 332]
2 |  | 93 | CN(C(=O)c1cccc(C2CCN(c3nc4c(c(NC5CCOCC5)n3)[S+]([O-])CC4)CC2)c1)C1CC1 (centres unmarked) [Example 249, N-cyclopropyl-N-methyl-3-{1-[5-oxo-4-(tetrahydropyran-4-ylamino)-6,7-dihydro-5H-5λ^4-thieno[3,2-d]pyrimidin-2-yl]-piperidin-4-yl}-benzamide]
3 |  | 95 | CC(C)c1ccccc1OC1CCN(c2nc3c(c(N[C@H]4CCC(=O)N(C)C4)n2)[S+]([O-])CC3)CC1 (some centres unmarked) [Example 266]
4 |  | 93 | NC1CC1Nc1nc(N2CCC(c3ccc(Cl)cc3)CC2)nc2c1[S+]([O-])CC2 (centres unmarked) [Example 233, N-{2-[4-(4-Chlorophenyl)-Piperidin-1-Yl]-5-Oxo-6,7-Dihydro-5H-5λ^4-Thieno[3,2-d]Pyrimidin-4-Yl}-Cyclopropan-1,2-Diamine]
5 |  | 92 | CN1C[C@@H](Nc2nc(N3CCC(O)(c4ccc(Cl)cc4)CC3)nc3c2[S+]([O-])CC3)CCC1=O (some centres unmarked) [Example 254]
6 |  | 86 | [O-][S+]1CCc2nc(N3CCC(O)(c4ccc(Cl)cc4)CC3)nc(Nc3cccc(F)c3)c21 (centres unmarked) [Example 290]
7 |  | 95 | Cc1oc(C2CCN(c3nc4c(c(NC5CCOCC5)n3)[S+]([O-])CC4)CC2)nc1-c1ccccc1 (centres unmarked) [Example 276]
8 |  | 93 | Cn1c(C2CCN(c3nc4c(c(NC5CCOCC5)n3)[S+]([O-])CC4)CC2)nc2ccccc21 (centres unmarked) [Example 212]
9 |  | 92 | [O-][S+]1CCc2nc(N3CCC(COCc4ccccc4)(c4ccc(Cl)cc4)CC3)nc(NC3(CO)CC3)c21 (centres unmarked) [Example 309]
10 |  | 85 | Cn1c(C2CCN(c3nc4c(c(NC5CCOCC5)n3)[S+]([O-])CC4)CC2)nc2cnccc21 (centres unmarked) [Example 210, {2-[4-(1-methyl-1H-imidazo[4,5-c]pyridin-2-yl)-piperidin-1-yl]-5-oxo-6,7-dihydro-5H-5λ^4-thieno[3,2-d]pyrimidin-4-yl}-(tetrahydropyran-4-yl)-amine]
11 |  | 96 | Cc1oc(C2CCN(c3nc4c(c(NC5(CO)CC5)n3)[S+]([O-])CC4)CC2)nc1-c1ccccc1 (centres unmarked) [Example 277]
12 |  | 94 | Cc1cn(C)nc1CN(C)C(=O)c1ccc(OC2CCN(c3nc4c(c(NC5CCOCC5)n3)[S+]([O-])CC4)CC2)cc1 (centres unmarked) [Example 239]
13 |  | 91 | COCC1(c2ccc(Cl)cc2)CCN(c2nc3c(c(Nc4cccc(F)c4)n2)[S+]([O-])CC3)CC1 (centres unmarked) [Example 305]
14 |  | 94 | Cn1nc(C2CCN(c3nc4c(c(NC5CCOCC5)n3)[S+]([O-])CC4)CC2)cc1-c1ccco1 (centres unmarked) [Example 198, {2-[4-(5-furan-2-yl-1-methyl-1H-pyrazol-3-yl)-piperidin-1-yl]-5-oxo-6,7-dihydro-5H-5λ^4-thieno[3,2-d]pyrimidin-4-yl}-(tetrahydropyran-4-yl)-amine]
15 |  | 89 | [O-][S+]1CCc2nc(N3CCC(c4cc(-c5cccs5)[nH]n4)CC3)nc(Nc3cccc(F)c3)c21 (centres unmarked) [Example 287]
16 |  | 95 | Cc1nn(C)cc1C(C)NC(=O)c1ccc(OC2CCN(c3nc4c(c(NC5CCOCC5)n3)[S+]([O-])CC4)CC2)cc1 (centres unmarked) [Example 244]
17 |  | 95 | CN1C[C@@H](Nc2nc(N3CCC(c4nc(-c5ccccc5)c(-c5ccccc5)o4)CC3)nc3c2[S+]([O-])CC3)CCC1=O (some centres unmarked) [Example 278, 5-{2-[4-(4,5-diphenyloxazol-2-yl)-piperidin-1-yl]-5-oxo-6,7-dihydro-5H-5λ^4-thieno[3,2-d]pyrimidin-4-ylamino}-1-methylpiperidin-2-one]
18 |  | 82 | [O-][S+]1CCc2nc(N3CCC(c4nc5ncncc5[nH]4)CC3)nc(NC3CCOCC3)c21 (centres unmarked) [Example 208]
19 |  | 89 | COCC1(c2ccc(Cl)cc2)CCN(c2nc3c(c(N[C@@H](CO)C(C)C)n2)[S+]([O-])CC3)CC1 (some centres unmarked) [Example 304]

Continued, compound first:

Row | SMILES | inhibition at 1 µM [1] [%] | inhibition at 1 µM [2] [%]
20 | [O-][S+]1CCc2nc(N3CCC(c4ccccc4F)CC3)nc(NC3(CO)CC3)c21 (centres unmarked) [Example 87] | 92 | 
21 | COC(=O)c1ccc(C2CCN(c3nc4c(c(NC5CCOCC5)n3)[S+]([O-])CC4)CC2)cc1 (centres unmarked) [Example 119] | 95 | 
22 | CC(C)[C@H](CO)Nc1nc(N2CCC(c3nc(-c4ccncc4)no3)CC2)nc2c1[S+]([O-])CC2 (stereo partly drawn) [Example 163, (R)-3-Methyl-2-{5-Oxo-2-[4-(3-Pyridin-4-Yl-[1,2,4]Oxadiazol-5-Yl)-Piperidin-1-Yl]-6,7-Dihydro-5H-5λ^4-Thieno[3,2-d]Pyrimidin-4-Ylamino}-Butan-1-Ol Trifluoroacetate] | 92 | 
23 | N#Cc1cccc(C2CCN(c3nc4c(c(NC5(CO)CC5)n3)[S+]([O-])CC4)CC2)c1 (centres unmarked) [Example 107] | 94 | 
24 | [O-][S+]1CCc2nc(N3CCC(c4cc(-c5ccco5)n[nH]4)CC3)nc(Nc3cccc(F)c3)c21 (centres unmarked) [Example 145, (3-Fluorophenyl)-{2-[4-(5-Furan-2-Yl-2H-Pyrazol-3-Yl)-Piperidin-1-Yl]-5-Oxo-6,7-Dihydro-5H-5λ^4-Thieno[3,2-d]Pyrimidin-4-Yl}-Amine Trifluoracetat] | 96 | 
25 | CCN(CC)CCOc1ccc(OC2CCN(c3nc4c(c(NC5CCOCC5)n3)[S+]([O-])CC4)CC2)cc1 (centres unmarked) [Example 178, (2-{4-[4-(2-diethylamino-ethoxy)-phenoxy]-piperidin-1-yl}-5-oxo-6,7-dihydro-5H-5λ^4-thieno[3,2-d]pyrimidin-4-yl)-(tetrahydropyran-4-yl)-amine] |  | 92
26 | N#Cc1cccc(C2CCN(c3nc4c(c(NC5CCOCC5)n3)[S+]([O-])CC4)CC2)c1 (centres unmarked) [Example 123] | 94 | 
27 | [O-][S+]1CCc2nc(N3CCC(c4cccc(Cl)c4)CC3)nc(Nc3cccc(F)c3)c21 (centres unmarked) [Example 84] | 95 | 
28 | CS(=O)(=O)N1CC2(CCN(c3nc4c(c(Nc5cccc(F)c5)n3)[S+]([O-])CC4)CC2)c2ccccc21 (centres unmarked) [Example 74] | 95 | 
29 | [O-][S+]1CCc2nc(N3CCC(c4noc5ccccc45)CC3)nc(Nc3cccc(F)c3)c21 (centres unmarked) [Example 75, [2-(4-Benzo[d]Isoxazol-3-Yl-Piperidin-1-Yl)-5-Oxo-6,7-6,7-Dihydro-5H-5λ^4-Thieno[3,2-d]Pyrimidin-4-Yl]-(3-Fluorophenyl)-Amine] | 97 | 
30 | [O-][S+]1CCc2nc(N3CCC(c4ccc5ccccc5c4)CC3)nc(NC3(CO)CC3)c21 (centres unmarked) [Example 111] | 96 | 
31 | COC(=O)c1ccc(OC2CCN(c3nc4c(c(NC5CCOCC5)n3)[S+]([O-])CC4)CC2)cc1 (centres unmarked) [Example 176] |  | 93
32 | CC(C)[C@H](CO)Nc1nc(N2CCC(c3noc4cc(F)ccc34)CC2)nc2c1[S+]([O-])CC2 (some centres unmarked) [Example 152] | 95 | 
33 | CN1C[C@@H](Nc2nc(N3CCC(c4c[nH]c5ccccc45)CC3)nc3c2[S+]([O-])CC3)CCC1=O (some centres unmarked) [Example 41] | 97 | 
34 | [O-][S+]1CCc2nc(N3CCC(c4cccc(O)c4)CC3)nc(NC3CCOCC3)c21 (centres unmarked) [Example 61] | 95 | 
35 | [O-][S+]1CCc2nc(N3CCC(O)(c4cc(F)cc(F)c4)CC3)nc(NC3CCOCC3)c21 (centres unmarked) [Example 62] | 96 | 
36 | CC(C)[C@H](CO)Nc1nc(N2CCC(c3ccc(Cl)cc3)CC2)nc2c1[S+]([O-])CC2 (stereo partly drawn) [Example 1, (R)-2-{2-[4-(4-chlorophenyl)-piperidin-1-yl]-5-oxo-6,7-dihydro-5H-5λ^4-thieno[3,2-d]pyrimidin-4-ylamino}-3-methylbutan-1-ol] | 93 | 
37 | [O-][S+]1CCc2nc(N3CCC(c4nnc(-c5ccc(F)cc5)o4)CC3)nc(NC3(CO)CC3)c21 (centres unmarked) [Example 112] | 95 | 
38 | CCc1[nH]c2ccc(F)cc2c1C1CCN(c2nc3c(c(N[C@H]4CCC(=O)N(C)C4)n2)[S+]([O-])CC3)CC1 (some centres unmarked) [Example 52] | 96 | 
39 | CN1C(=O)Nc2ccccc2C12CCN(c1nc3c(c(NC4CCOCC4)n1)[S+]([O-])CC3)CC2 (centres unmarked) [Example 58, 3′-Methyl-1-(4-(Tetrahydro-2H-Pyran-4-Ylamino)-5-Oxo-6,7-Dihydro-5H-5λ^4-Thieno[3,2-d]Pyrimidin-2-Yl)-1′H-Spiro[Piperidin-4,4′-Quinazolin]-2′(3′H)-One] | 88 | 
40 | [O-][S+]1CCc2nc(N3CCC(c4nc(-c5ccncc5)no4)CC3)nc(NC3CCOCC3)c21 (centres unmarked) [Example 132] | 95 | 
41 | CN1C(=O)Nc2ccccc2C12CCN(c1nc3c(c(NC4(CO)CC4)n1)[S+]([O-])CC3)CC2 (centres unmarked) [Example 28, 1-(4-(1-Hydroxymethylcyclopropylamino)-5-Oxo-6,7-Dihydro-5H-5λ^4-Thieno[3,2-d]Pyrimidin-2-Yl)-3′-Methyl-1′H-Spiro[Piperidin-4,4′-Quinazolin]-2′(3′H)-One] | 85 | 
42 | [O-][S+]1CCc2nc(N3CCC(c4ccncc4)CC3)nc(NC3CCOCC3)c21 (centres unmarked) [Example 63] | 92 | 
43 | [O-][S+]1CCc2nc(N3CCC(Oc4ccc5c(c4)CCNCC5)CC3)nc(NC3CCOCC3)c21 (centres unmarked) [Example 183, (5-Oxo-2-[4-(2,3,4,5-Tetrahydro-1H-Benzo[d]Azepin-7-Yloxy)-Piperidin-1-Yl]-6,7-Dihydro-5H-5λ^4-Thieno[3,2-d]Pyrimidin-4-Yl)-(Tetrahydropyran-4-Yl)-Amine] |  | 91
44 | [O-][S+]1CCc2nc(N3CCC(c4ccc(F)cc4)CC3)nc(NC3(CO)CC3)c21 (centres unmarked) [Example 11] | 94 | 
45 | Cc1noc(C2CCN(c3nc4c(c(NC5(CO)CC5)n3)[S+]([O-])CC4)CC2)n1 (centres unmarked) [Example 38] | 92 | 
46 | O=C(N1CCc2ccc(OC3CCN(c4nc5c(c(NC6CCOCC6)n4)[S+]([O-])CC5)CC3)cc2CC1)C(F)(F)F (centres unmarked) [Example 182, 2,2,2-Trifluoro-1-(7-{1-[5-Oxo-4-(Tetrahydropyran-4-Ylamino)-6,7-Dihydro-5H-5λ^4-Thieno[3,2-d]Pyrimidin-2-Yl]-Piperidin-4-Yloxy}-1,2,4,5-Tetrahydrobenzo[d]Azepin-3-Yl)-Ethanone] |  | 82
47 | Cc1noc(C2CCN(c3nc4c(c(Nc5cccc(F)c5)n3)[S+]([O-])CC4)CC2)n1 (centres unmarked) [Example 83] | 96 | 
